Each structure is given as a SMILES string.

One test has as its target T1, PI3K alfa (Homo sapiens, UniProt P42336).
T1 construct: His tag (C); made in house; host or cells: baculovirus BV1075; Tn5 (Trichoplusia ni) or TiniPro insect cells
Briefly: PI3K alpha kinase assay (Kinase-Glo luminescence). The class given is biochemical. The following applies: read-out: EPK_PI3Kalfa/IC50. The method in brief:
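Kinase-Glo luminescence read of ATP remaining after PI3Kα (10 nM) phosphorylates 10 μg/mL bovine liver phosphatidylinositol with 1 μM ATP, pH 7.5 TRIS, 3 mM MgCl2, 0.05% CHAPS; 60 min at room temperature. IC50 from 4-parameter logistic fit over 8 concentrations.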

A further test addresses T2, PI3K delta (Homo sapiens, UniProt O00329).
T2 construct: for the full-length p110-d subunit are generated and fused by overlapping PCR; His tag (C); made in house; host or cells: baculovirus BV1060; Tn5 (Trichoplusia ni) or TiniPro insect cells
As to the kind of experiment: PI3K delta kinase assay (Kinase-Glo luminescence). The test is classed as biochemical. Conditions: read-out: EPK_PI3Kdelta/IC50. The method in brief:
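Kinase-Glo ATP-depletion luminescence using 10 nM p85(iSH2)-linker-p110δ full-length His-tag construct from insect cells, with 1 μM ATP and 10 μg/mL phosphatidylinositol in 10 mM Tris pH 7.5, 3 mM MgCl2, 50 mM NaCl, 0.05% CHAPS, 1 mM DTT. 60 min room temperature; IC50 from 4-parameter logistic fit over 8 concentrations.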

T2 sequence (O00329 with tags, fused parts or gaps limits assumed): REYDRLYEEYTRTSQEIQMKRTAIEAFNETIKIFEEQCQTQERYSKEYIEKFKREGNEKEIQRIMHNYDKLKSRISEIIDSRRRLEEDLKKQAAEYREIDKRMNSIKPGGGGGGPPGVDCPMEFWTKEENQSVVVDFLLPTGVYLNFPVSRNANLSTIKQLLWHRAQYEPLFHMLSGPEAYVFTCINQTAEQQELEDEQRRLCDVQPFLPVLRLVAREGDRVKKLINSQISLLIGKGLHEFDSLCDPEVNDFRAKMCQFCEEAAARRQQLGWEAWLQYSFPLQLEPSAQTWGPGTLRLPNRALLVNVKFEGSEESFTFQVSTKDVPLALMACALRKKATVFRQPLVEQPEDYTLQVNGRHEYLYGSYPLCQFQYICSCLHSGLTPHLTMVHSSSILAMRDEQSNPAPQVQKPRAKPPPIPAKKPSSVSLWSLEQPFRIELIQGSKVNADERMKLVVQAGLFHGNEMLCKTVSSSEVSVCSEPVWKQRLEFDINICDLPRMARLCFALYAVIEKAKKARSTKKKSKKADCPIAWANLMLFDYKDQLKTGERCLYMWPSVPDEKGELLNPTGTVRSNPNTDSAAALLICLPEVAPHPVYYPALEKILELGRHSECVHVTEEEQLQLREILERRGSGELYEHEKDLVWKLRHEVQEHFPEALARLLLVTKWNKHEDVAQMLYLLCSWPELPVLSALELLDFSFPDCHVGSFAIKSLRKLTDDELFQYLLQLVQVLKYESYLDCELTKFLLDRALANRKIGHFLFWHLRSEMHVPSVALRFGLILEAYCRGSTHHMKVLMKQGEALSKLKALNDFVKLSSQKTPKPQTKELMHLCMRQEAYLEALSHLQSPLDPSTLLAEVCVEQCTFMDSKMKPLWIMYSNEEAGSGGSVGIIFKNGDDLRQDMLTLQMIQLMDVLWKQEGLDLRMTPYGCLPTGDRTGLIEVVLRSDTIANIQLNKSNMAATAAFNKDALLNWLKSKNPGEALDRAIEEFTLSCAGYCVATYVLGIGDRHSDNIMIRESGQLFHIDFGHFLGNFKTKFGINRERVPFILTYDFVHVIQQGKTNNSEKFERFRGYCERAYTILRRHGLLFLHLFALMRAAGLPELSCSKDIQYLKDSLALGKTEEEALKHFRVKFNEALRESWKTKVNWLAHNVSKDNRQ
T1 sequence (P42336 with tags, fused parts or gaps limits assumed): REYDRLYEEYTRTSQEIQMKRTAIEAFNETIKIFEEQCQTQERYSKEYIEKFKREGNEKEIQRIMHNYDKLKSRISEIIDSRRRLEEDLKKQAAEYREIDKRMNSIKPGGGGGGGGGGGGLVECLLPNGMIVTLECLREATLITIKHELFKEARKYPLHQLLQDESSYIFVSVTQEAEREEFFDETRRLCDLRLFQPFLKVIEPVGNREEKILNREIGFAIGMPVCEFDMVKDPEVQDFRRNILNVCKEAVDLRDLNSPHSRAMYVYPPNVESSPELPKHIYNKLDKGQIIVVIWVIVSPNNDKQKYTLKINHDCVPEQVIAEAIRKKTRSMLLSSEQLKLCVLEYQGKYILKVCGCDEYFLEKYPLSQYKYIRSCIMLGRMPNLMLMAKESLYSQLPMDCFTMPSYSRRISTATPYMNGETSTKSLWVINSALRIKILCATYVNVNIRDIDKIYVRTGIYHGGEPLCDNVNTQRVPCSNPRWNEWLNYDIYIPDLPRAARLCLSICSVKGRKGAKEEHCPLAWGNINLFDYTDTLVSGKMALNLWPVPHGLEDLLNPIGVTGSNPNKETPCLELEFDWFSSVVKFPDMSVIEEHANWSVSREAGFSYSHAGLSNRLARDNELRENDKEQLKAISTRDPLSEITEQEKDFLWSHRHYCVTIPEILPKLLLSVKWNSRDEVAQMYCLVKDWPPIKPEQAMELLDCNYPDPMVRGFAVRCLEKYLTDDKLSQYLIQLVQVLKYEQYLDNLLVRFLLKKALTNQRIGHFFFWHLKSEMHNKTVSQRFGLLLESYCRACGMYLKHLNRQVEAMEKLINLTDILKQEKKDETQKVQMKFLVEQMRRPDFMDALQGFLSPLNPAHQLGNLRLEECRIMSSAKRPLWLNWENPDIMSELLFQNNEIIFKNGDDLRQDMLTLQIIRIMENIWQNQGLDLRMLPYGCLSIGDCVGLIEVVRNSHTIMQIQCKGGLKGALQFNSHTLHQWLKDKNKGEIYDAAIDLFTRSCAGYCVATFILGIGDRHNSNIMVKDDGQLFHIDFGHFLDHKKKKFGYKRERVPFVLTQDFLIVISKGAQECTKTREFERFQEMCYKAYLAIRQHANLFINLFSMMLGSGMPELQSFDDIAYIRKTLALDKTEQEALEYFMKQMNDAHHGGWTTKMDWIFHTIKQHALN

Turning to `COc1cc(-c2ccc3ncc4c(c3c2)n(-c2ccc(N(C)C)nc2C)c(=O)n4C)cnc1CO` [Example 19.4, 1-(6-Dimethylamino-2-methyl-pyridin-3-yl)-8-(6-hydroxymethyl-5-methoxy-pyridin-3-yl)-3-methyl-1,3-dihydro-imidazo[4,5-c]quinolin-2-one], the values for the IC50 on PI3K alfa and at PI3K delta were 9 nM and 24 nM, respectively.

Take `Cc1nc(N(C)C)ccc1-n1c(=O)n(C)c2cnc3ccc(-c4cncc(N)c4)cc3c21` [Example 19.5, 8-(5-Amino-pyridin-3-yl)-1-(6-dimethylamino-2-methyl-pyridin-3-yl)-3-methyl-1,3-dihydro-imidazo[4,5-c]quinolin-2-one]: the IC50 at PI3K alfa amounted to 65 nM; on PI3K delta, 67 nM.

For `COCC(=O)Nc1ccc(-n2c(=O)n(C)c3cnc4ccc(-c5cncc(N)c5)cc4c32)c(C)n1` [Example 20.1, N-{5-[8-(5-Amino-pyridin-3-yl)-3-methyl-2-oxo-2,3-dihydro-imidazo[4,5-c]quinolin-1-yl]-6-methyl-pyridin-2-yl}-2-methoxy-acetamide], the IC50 at PI3K alfa turned out to be 50 nM; on PI3K delta, 34 nM.

As to `CCOc1ccc(-c2ccc3ncc4c(c3c2)n(-c2ccc(NC(=O)COC)nc2C)c(=O)n4C)cn1` [Example 20.2, N-{5-[8-(6-Ethoxy-pyridin-3-yl)-3-methyl-2-oxo-2,3-dihydro-imidazo[4,5-c]quinolin-1-yl]-6-methyl-pyridin-2-yl}-2-methoxy-acetamide], the results for the IC50 on PI3K alfa and on PI3K delta were 162 nM and 247 nM, respectively.

Regarding `CNc1ncc(-c2ccc3ncc4c(c3c2)n(-c2ccc(NC(=O)COC)nc2C)c(=O)n4C)cn1` [Example 20.3, 2-Methoxy-N-{6-methyl-5-[3-methyl-8-(2-methylamino-pyrimidin-5-yl)-2-oxo-2,3-dihydro-imidazo[4,5-c]quinolin-1-yl]-pyridin-2-yl}-acetamide], the IC50 on PI3K alfa was 123 nM; on PI3K delta, 403 nM.

Consider `CNc1ccc(-c2ccc3ncc4c(c3c2)n(-c2ccc(NC(=O)COC)nc2C)c(=O)n4C)cn1` [Example 20.4, 2-Methoxy-N-{6-methyl-5-[3-methyl-8-(6-methylamino-pyridin-3-yl)-2-oxo-2,3-dihydro-imidazo[4,5-c]quinolin-1-yl]-pyridin-2-yl}-acetamide], for which the IC50 is 39 nM on PI3K alfa and 78 nM on PI3K delta.

Turning to `COCC(=O)Nc1ccc(-n2c(=O)n(C)c3cnc4ccc(-c5cncc(OC(C)C)c5)cc4c32)c(C)n1` [Example 20.5, N-{5-[8-(5-Isopropoxy-pyridin-3-yl)-3-methyl-2-oxo-2,3-dihydro-imidazo[4,5-c]quinolin-1-yl]-6-methyl-pyridin-2-yl}-2-methoxy-acetamide], the values for the IC50 at PI3K alfa and at PI3K delta were 40 nM and 142 nM, respectively.

Consider `COCCOc1ccc(-n2c(=O)n(C)c3cnc4ccc(-c5cncc(N6CCC6)c5)cc4c32)c(C)n1` [Example 22.2, 8-(5-Azetidin-1-yl-pyridin-3-yl)-1-[6-(2-methoxy-ethoxy)-2-methyl-pyridin-3-yl]-3-methyl-1,3-dihydro-imidazo[4,5-c]quinolin-2-one], for which the IC50 worked out at 171 nM on PI3K alfa and 101 nM at PI3K delta.

For `COCCOc1ccc(-n2c(=O)n(C)c3cnc4ccc(-c5cnc(COC)c(OC)c5)cc4c32)c(C)n1` [Example 22.3, 1-[6-(2-Methoxy-ethoxy)-2-methyl-pyridin-3-yl]-8-(5-methoxy-6-methoxymethyl-pyridin-3-yl)-3-methyl-1,3-dihydro-imidazo[4,5-c]quinolin-2-one], the IC50 at PI3K alfa came to 164 nM; on PI3K delta, 56 nM.

With `Cc1nc(N2CC(F)(F)C2)ccc1-n1c(=O)n(C)c2cnc3ccc(-c4cncc(C(C)(C)O)c4)cc3c21` [Example 24.2, 1-[6-(3,3-Difluoro-azetidin-1-yl)-2-methyl-pyridin-3-yl]-8-[5-(1-hydroxy-1-methyl-ethyl)-pyridin-3-yl]-3-methyl-1,3-dihydro-imidazo[4,5-c]quinolin-2-one], the figures for the IC50 at PI3K alfa and on PI3K delta were 10 nM and 18 nM, respectively.

Take `CCNc1cc(-c2ccc3ncc4c(c3c2)n(-c2ccc(N3CC(F)(F)C3)nc2C)c(=O)n4C)cnc1CO` [Example 24.3, 1-[6-(3,3-Difluoro-azetidin-1-yl)-2-methyl-pyridin-3-yl]-8-(5-ethylamino-6-hydroxymethyl-pyridin-3-yl)-3-methyl-1,3-dihydro-imidazo[4,5-c]quinolin-2-one]: the IC50 was 11 nM on PI3K alfa and 55 nM at PI3K delta.

Take `CNc1ccc(-c2ccc3ncc4c(c3c2)n(-c2ccc(N3CCCC3)nc2C)c(=O)n4C)cn1` [Example 25.1, 3-Methyl-8-(6-methylamino-pyridin-3-yl)-1-(2-methyl-6-pyrrolidin-1-yl-pyridin-3-yl)-1,3-dihydro-imidazo[4,5-c]quinolin-2-one]: the IC50 stood at 35 nM at PI3K alfa and 24 nM on PI3K delta.

As for `Cc1nc(N2CCC(O)C2)ccc1-n1c(=O)n(C)c2cnc3ccc(-c4cncc(OC(C)C)c4)cc3c21` (centres unmarked) [Example 27.1, 1-[6-(3-Hydroxy-pyrrolidin-1-yl)-2-methyl-pyridin-3-yl]-8-(5-isopropoxy-pyridin-3-yl)-3-methyl-1,3-dihydro-imidazo[4,5-c]quinolin-2-one], the IC50 was found to be 21 nM at PI3K alfa and 9 nM at PI3K delta.

As to `Cc1nc(C(C)(C)O)ccc1-n1c(=O)n(C)c2cnc3ccc(-c4cncc(OC(C)C)c4)cc3c21` [Example 31.9, 1-[6-(1-Hydroxy-1-methyl-ethyl)-2-methyl-pyridin-3-yl]-8-(5-isopropoxy-pyridin-3-yl)-3-methyl-1,3-dihydro-imidazo[4,5-c]quinolin-2-one], the results for the IC50 on PI3K alfa and on PI3K delta were 51 nM and 14 nM, respectively.

For the compound `CNc1cc(-c2ccc3ncc4c(c3c2)n(-c2ccc(C(F)(F)F)nc2C)c(=O)n4C)cnc1CO` [Example 33.2, 8-(6-Hydroxymethyl-5-methylamino-pyridin-3-yl)-3-methyl-1-(2-methyl-6-trifluoromethyl-pyridin-3-yl)-1,3-dihydro-imidazo[4,5-c]quinolin-2-one], the IC50 was determined as 15 nM at PI3K alfa and 10 nM at PI3K delta.

In the case of `Cc1nc(N2CC(F)(F)C(F)(F)C2)ccc1-n1c(=O)n(C)c2cnc3ccc(-c4cncc(C(C)(C)O)c4)cc3c21` [Example 35.1, 8-[5-(1-Hydroxy-1-methyl-ethyl)-pyridin-3-yl]-3-methyl-1-[2-methyl-6-(3,3,4,4-tetrafluoro-pyrrolidin-1-yl)-pyridin-3-yl]-1,3-dihydro-imidazo[4,5-c]quinolin-2-one], the IC50 on PI3K alfa was 7 nM; on PI3K delta, 5 nM.

The values are drawn from patent publication US20100311714A1, “1H-IMIDAZO[4,5-c]QUINOLINONE COMPOUNDS” (priority 2009, published 2010).
